Experiments:
[1] = in vivo; details: male, Sprague-Dawley, rat, po
[2] = Plasma pharmacokinetics of GEB constituents after oral GEB extract in normal and MCAO rats (UPLC-MS/MS, non-compartmental); details: for AUC0-t / Tmax / AUC0−∞ / CLz/F / Cmax / MRT0-t / T1/2 / Vz/F: plasma
[3] = Brain tissue distribution of GEB constituents after oral GEB extract in normal and MCAO rats; assay type: in vivo
Procedure: An independent cohort (n = 6/group) was sacrificed under deep anesthesia (pentobarbital sodium 40 mg/kg, i. p.) at 0.5 h, 1 h, 3 h, and 12 h post-final dosing. Cerebral perfusion was performed with ice-cold normal saline via left ventricular cannulation to eliminate residual blood. Whole brains were rapidly excised, weighed, and homogenized in four volumes of phosphate-buffered saline (pH 7.4) using a tissue grinder (Precellys 24, Bertin Technologies, France). Homogenates were centrifuged at 12,000 × g for 15 min at 4°C. The supernatants were filtered through 0.22 μm PVDF membranes and aliquoted into polypropylene tubes.
Weigh 300 mg of rat brain tissue and add 3 volumes of PBS solution. […] Collect the supernatant to obtain the test tissue homogenate. Take 400 µL of the homogenate, add 50 µL of internal standard solution and 1,150 µL of methanol, then vortex-mix for 5 min.

[4] = test system: cerebral ischemia in rats; assay: Therapeutic effect of GEB extract on cerebral ischemia (MCAO): mNSS, body weight, survival, TTC staining; assay type: in vivo; details: vs MCAO group, GEB low and high dose, nimodipine control
Procedure: High-dose GEB extract was prepared by adding 4.8 g of GEB extract in 40 mL of purified water to make a 120 mg/mL solution (calculated based on the human daily intake of 48 g of GEB).
The low dose of GEB was prepared by adding 2 g of GEB extract in 40 mL of purified water to make a 50 mg/mL solution (calculated based on the human daily intake of 20 g of GEB).
For preparing positive drugs, 2 nimodipine tablets (30 mg/tablet) were ground and added to 50 mL of purified water to make a 1.2 mg/mL solution (calculated based on the human daily intake of 120 mg of nimodipine).
After induction of deep anesthesia with pentobarbital (40 mg/kg), the rats were euthanized by cervical dislocation, followed by decapitation for brain removal. The brains were immediately flash-frozen in a freezer for 20 min. Then, the olfactory bulb and cerebellum were removed, the brain was cut into 6 coronal sections from anterior to posterior, stained with 1% TTC solution in the dark for 20 min at 37°C, and preserved in 4% paraformaldehyde for 30 min.
Rats were allocated into five groups: sham-operated (Sham), MCAO, low-dose GEB extract (GEB-L), high-dose GEB extract (GEB-H), and nimodipine control (NMDP). […] Longitudinal monitoring included body weight tracking and survival assessment, complemented by triphenyltetrazolium chloride (TTC) staining for cerebral infarction evaluation at study termination.

[5] = design: method as in Tang et al., 2015; details: ref Tang et al., 2015; cited from earlier work
[6] = MCAO rats, GEB extract 1,200 mg/kg oral gavage once daily for 3 days
[7] = MCAO rats, oral GEB extract 4.8 g/kg, n = 8
[8] = comparison among components after oral GEB extract
[9] = MCAO vs normal rats, range over PA, PB, PC, GAS, p < 0.05
[10] = normal rats, oral GEB extract 4.8 g/kg, n = 8

## N[C@@H](CCC(=O)N[C@@H](CSCc1ccc(O)cc1)C(=O)NCC(=O)O)C(=O)O [4-HBG, S-(4-hydroxybenzyl) glutathione]
[1]; plasma, 1200 mg/kg
  AUC0-t: 120 ± 37 ng·h/mL
  Tmax: 2.3 ± 1.1 h
[1]; plasma, 4.8 g/kg
  AUC0-t: 113 ± 37.7 ng·h/mL
  AUC(0-inf): 120 ± 37 ng·h/mL
  CL/F: 1090 mL/min/kg
  Cmax: 24.1 ± 8.4 ng/mL
  MRT last: 4.18 ± 0.51 h
  Tmax: 3.5 ± 0.93 h
  Vd/F: 212 ± 102 L/kg
  half-life: 2.27 ± 1.14 h
[2]; [6]
  AUC0-t: 129 ± 53 ng·h/mL
[2]; MCAO rats, GEB extract oral
  Tmax: 2.03 ± 0.2 h
[2]; [7]
  AUC0-t: 124.8 ± 51.3 ng·h/mL
  AUC0−∞: 129.1 ± 52.8 ng·h/mL
  CLz/F: 1050 ± 367 mL/min/kg
  Cmax: 24.6 ± 11.2 ng/mL
  MRT0-t: 4.37 ± 0.50 h
  T1/2: 2.03 ± 0.24 h
  Tmax: 3.75 ± 0.71 h
  Vz/F: 186.8 ± 73.0 L/kg

## OCc1ccc(O[C@@H]2O[C@H](CO)[C@@H](O)[C@H](O)[C@H]2O)cc1 [GAS, gastrodin]
[3]; [8]
  BBB penetration / cerebral distribution (in words): limited BBB penetration
[3]; normal rats, brain tissue, GEB extract oral
  cerebral concentration: < 40 ng/mL
[1]; in vivo, 1200 mg/kg
  AUC0-t: 6620 ng·h/mL
  Cmax: 6620 ng/mL
[1]; in vivo, 4.8 g/kg
  AUC0-t: 6620 ng·h/mL
  AUC(0-inf): 6690 ng·h/mL
  CL/F: 38.3 mL/min/kg
  Cmax: 6620 ng/mL
  MRT last: 0.83 ± 0.06 h
  Tmax: 0.31 ± 0.12 h
  Vd/F: 2 ± 0.2 L/kg
  half-life: 0.6 ± 0.07 h
[2]; [6]
  AUC0-t: 4,836 ± 791 ng*h/mL
[2]; MCAO rats, GEB extract 1,200 mg/kg oral once daily for 3 days
  Cmax: 4,646 ± 1,195 ng/mL
[2]; [9]
  CLz/F increase in MCAO rats compared to controls: 1.4–2.0 fold
[2]; [7]
  AUC0-t: 4,835.6 ± 790.9 ng*h/mL
  AUC0−∞: 4,914.0 ± 728.3 ng*h/mL
  CLz/F: 53.3 ± 8.3 mL/min/kg
  Cmax: 4,646.2 ± 1,195.9 ng/mL
  MRT0-t: 0.88 ± 0.20 h
  T1/2: 0.58 ± 0.29 h
  Tmax: 0.27 ± 0.16 h
  Vz/F: 2.7 ± 1.6 L/kg

## OCc1ccc(O)cc1 [HBA, 4-hydroxybenzyl alcohol]
[2]; rats after oral GEB extract
  concentration in rats (in words): very low

## COCCOC(=O)C1=C(C)NC(C)=C(C(=O)OC(C)C)C1c1cccc([N+](=O)[O-])c1 (centres unmarked) [NMDP, nimodipine]
[4]
  therapeutic effect on neurological deterioration, weight loss and infarction: improved these outcomes

## O=C(CC(O)(CC(=O)OCc1ccc(O[C@@H]2O[C@H](CO)[C@@H](O)[C@H](O)[C@H]2O)cc1)C(=O)OCc1ccc(O[C@@H]2O[C@H](CO)[C@@H](O)[C@H](O)[C@H]2O)cc1)OCc1ccc(O[C@@H]2O[C@H](CO)[C@@H](O)[C@H](O)[C@H]2O)cc1 [PA, Parishin A]
[3]; [8]
  BBB penetration / cerebral distribution (in words): superior BBB permeability
[5]
  average GAS molecules released per parent compound: 1.5
  conversion efficiency of partial hydrolysis in vivo: 50%
[1]; plasma, 4.8 g/kg
  AUC0-t: 148 ± 21.9 ng·h/mL
  AUC(0-inf): 153 ± 23.5 ng·h/mL
  CL/F: 8150 mL/min/kg
  Cmax: 79.8 ± 9.8 ng/mL
  MRT last: 1.26 ± 0.09 h
  Tmax: 0.94 ± 0.18 h
  half-life: 0.74 ± 0.1 h
[2]; [7]
  AUC0-t: 75.4 ± 29.3 ng·h/mL
  AUC0−∞: 85.9 ± 25.0 ng·h/mL
  Cmax: 41.5 ± 18.5 ng/mL
  MRT0-t: 1.33 ± 0.27 h
  T1/2: 1.41 ± 1.75 h
  Tmax: 0.78 ± 0.31 h
  Vz/F: 1706.9 ± 1891.6 L/kg
[2]; [10]
  Vz/F: 518.7 ± 88.3 L/kg
[2]; rat, in vivo
  CLz/F increase in MCAO rats compared to controls: 1.4–2.0 fold

## O=C(O)CC(O)(CC(=O)OCc1ccc(O[C@@H]2O[C@H](CO)[C@@H](O)[C@H](O)[C@H]2O)cc1)C(=O)OCc1ccc(O[C@@H]2O[C@H](CO)[C@@H](O)[C@H](O)[C@H]2O)cc1 (some centres unmarked) [PB, Parishin B]
[3]; [8]
  BBB penetration / cerebral distribution (in words): superior BBB permeability
[1]; plasma, 4.8 g/kg
  AUC0-t: 215 ± 37.4 ng·h/mL
  AUC(0-inf): 230 ± 50.9 ng·h/mL
  CL/F: 2790 mL/min/kg
  MRT last: 1.42 ± 0.13 h
  Tmax: 1 h
[2]; [7]
  AUC0-t: 108.0 ± 48.8 ng·h/mL
  AUC0−∞: 123.7 ± 38.8 ng·h/mL
  CLz/F: 5497 ± 1755 mL/min/kg
  Cmax: 48.8 ± 22.9 ng/mL
  MRT0-t: 1.63 ± 0.53 h
  T1/2: 2.16 ± 2.76 h
  Tmax: 0.72 ± 0.31 h
  Vz/F: 1,034.1 ± 1,468.2 L/kg
[2]; [10]
  Cmax: 112.8 ± 22.8 ng/mL
  T1/2: 1.01 ± 0.42 h
  Vz/F: 237.9 ± 98.4 L/kg
[2]; rat, in vivo
  CLz/F increase in MCAO rats compared to controls: 1.4–2.0 fold

## O=C(CC(O)(CC(=O)OCc1ccc(O[C@@H]2O[C@H](CO)[C@@H](O)[C@H](O)[C@H]2O)cc1)C(=O)O)OCc1ccc(O[C@@H]2O[C@H](CO)[C@@H](O)[C@H](O)[C@H]2O)cc1 [PC, Parishin C]
[3]; rat, in vivo, po
  BBB penetration / cerebral distribution (in words): superior BBB permeability
[1]; plasma, 4.8 g/kg
  AUC0-t: 56.4 ± 16.2 ng·h/mL
  AUC(0-inf): 71.1 ± 18.5 ng·h/mL
  CL/F: 1740 mL/min/kg
  Cmax: 21.5 ± 5.8 ng/mL
  MRT last: 1.78 ± 0.3 h
  Tmax: 0.94 ± 0.5 h
  half-life: 1.84 ± 0.56 h
[2]; [9]
  CLz/F increase in MCAO rats compared to controls: 1.4–2.0 fold
[2]; [7]
  AUC0-t: 30.1 ± 9.6 ng·h/mL
  AUC0−∞: 41.5 ± 15.7 ng·h/mL
  CLz/F: 3078 ± 1070 mL/min/kg
  Cmax: 12.1 ± 4.6 ng/mL
  MRT0-t: 1.68 ± 0.29 h
  T1/2: 2.35 ± 2.08 h
  Tmax: 1.13 ± 0.35 h
  Vz/F: 543.6 ± 442.8 L/kg
[2]; [10]
  Vz/F: 266.7 ± 78.4 L/kg

## O=C(O)CC(O)(CC(=O)OCc1ccc(O[C@@H]2O[C@H](CO)[C@@H](O)[C@H](O)[C@H]2O)cc1)C(=O)O (some centres unmarked) [PE, Parishin E]
[3]; [8]
  BBB penetration / cerebral distribution (in words): moderate cerebral distribution
[3]; male, Sprague-Dawley, rat, brain, oral, 1200 mg/kg, MCAO rats, 12 h post-final dosing
  concentration at 12 h: 4.25 ± 2.46 ng/g
[1]; plasma, 1200 mg/kg
  AUC0-t: 1310 ng·h/mL
[1]; plasma, 4.8 g/kg
  AUC0-t: 1210 ng·h/mL
  AUC(0-inf): 1310 ng·h/mL
  CL/F: 697 mL/min/kg
  Cmax: 375 ± 45.5 ng/mL
  MRT last: 2.41 ± 0.33 h
  Tmax: 1.13 ± 0.35 h
  Vd/F: 78.6 ± 24.2 L/kg
  half-life: 1.82 ± 1.13 h
[2]; [6]
  AUC0-t: 1,148 ± 530 ng*h/mL
[2]; [7]
  AUC0-t: 1,107.5 ± 517.6 ng*h/mL
  AUC0−∞: 1,147.5 ± 530.4 ng*h/mL
  Cmax: 324.9 ± 129.0 ng/mL
  MRT0-t: 2.68 ± 0.76 h
  T1/2: 1.95 ± 1.03 h
  Tmax: 1.25 ± 0.46 h
  Vz/F: 113.9 ± 64.2 L/kg

— PMC12350473, “Pharmacokinetics and brain tissue distribution of Gastrodia elata extract in normal and cerebral ischemic rats: a comparative study” (Frontiers in Pharmacology, 2025)
